According to patent publication US20250352530A1, “METHOD AND COMPOSITION FOR TREATING LUNG DISEASES” (MannKind Corporation, priority 2024, published 2025):

Test: Pharmacokinetic study in rats, pulmonary insufflation versus intravenous injection
Type: in vivo, male Sprague Dawley rats
Details: 0.8 mg/kg single dose; lung samples 10-240 minutes post administration; FIG. 5
Description: Pharmacokinetic studies in rats with Compound I crystalline composite (XC) dry powders—Insufflation studies were performed in rats to deliver doses of dry powders of Compound I, a protein kinase antagonist. The study was performed to determine the pharmacokinetics profile of Compound I dry powders made by the process as described above following pulmonary insufflation, or intravenous injection of a single dose of the composition administered in solution to male Sprague Dawley (Charles River Laboratories) adult rats, weighing between 200 g and 250 g at the time of the study. Dry powder comprising 22.1 wt % actual drug content were used and tested at 1 mg/ml in solution to deliver a dose of 0.8 mg/kg to 18 rats in each study group. Rats acclimatized and anesthetized prior to experimentation. Lung and blood samples were taken from the rats at 10, 20, 30, 120, and 240 minutes, post drug administration.

Cc1cccc(-n2ncc(C)c2-c2cc3cnccc3s2)n1 [Compound I, 2-[4-methyl-1-(6-methylpyridin-2-yl)-1H-pyrazol-5-yl]thieno-[3,2-c]pyridine]
content of Compound I in rat lung, insufflation versus IV injection: a higher content of Compound I was detected in rat lung after insufflation versus IV injection for a longer period of time
